Key:
[1] = Equilibrium swelling, gel fraction and Mc (Flory-Rehner) of PEG-OND hydrogels; assay type: physicochemical; conditions: for Mc (apparent molecular weight between elastic crosslinks): calculated with the Flory-Rehner equation from swelling results; for Gel Fraction: mass of dry residue post-swelling/input mass of OND and 4-PEG-SH; for Equilibrium Swelling Ratio: mass post-swelling/mass pre-swelling, deionized water, 4° C., 24 hours, n = 3 gels
Procedure, shortened: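 Gels of 3.5 wt % 4-PEG-SH with bis-, tris- or tetra-OND linkers (1:1 thiol:electrophile) in pH 7.4 PBS with 7% DMSO, cured 20 min RT, then swollen in water at 4 °C for 24 h and weighed. Gel fraction from freeze-dried residual versus input mass. Mc from modified Flory-Rehner equation (χ 0.43, Mn 10,000 g/mol).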

[2] = Degradation of neat PEG-OND hydrogels (inversion test, time-lapse photography); assay type: physicochemical
Method: Degradation rates of the PEG-OND hydrogels in the absence of swelling buffer varied with temperature and with the identity of OND used to form the gel. […] In comparison, gels formed using 7b were stable for more than 60 hours at 37° C., and approximately 13 hours at 50° C.
Three 500 μL 3.5 wt % hydrogels were formed with bis-ONDs 7a and 7b, and bis-EONB 8, respectively, in 2 mL vials with caps. The sealed vials were incubated in an oil bath maintained at 50° C. The samples were periodically removed from heat and the vials were inverted to determine if the gel was still intact, or whether the sample was a free-flowing liquid, as described in the main text. The gel formed between 4-PEG-SH and bis-EONB 8 in FIG. 9 was removed from heat after 5 days, and stored at room temperature in a sealed vial. The hydrogel is still intact at the time of writing (5 days at 50° C. followed by >1 year at room temperature). The inversion test was routinely used in all stability experiments to verify hydrogel integrity during incubation.
In order to observe reverse gelation upon prolonged heating of neat hydrogels, time-lapse photography was carried out. Briefly, 600 μL hydrogels comprised of 3.5 wt % 4-PEG-SH+bis-OND/EONB (7a, 7b, and 8, respectively) in pH 7.4 100 mM potassium phosphate buffer containing 7% DMSO (v/v) were formed in glass culture tubes and allowed to set for 15 minutes. A glass bead (˜160 mg, stained with blue Sharpie-brand marker to improve visibility) was placed carefully on top of each gel, and a drop of silicon oil was added to prevent evaporation at the surface of the gels. The tubes were sealed with lab parafilm and incubated in a 50° C. oil bath. Photos were collected every 2 minutes for ˜22 hours using Chronolapse software (v.1.0.4) and a Creative Labs webcam. Photographs were compiled in chronological order using iMovie software, with each photo occupying one 0.1 s frame. The resulting video is available as S1 Video, mentioned above.

Compound | Mc (apparent molecular weight between elastic crosslinks) [1] [g/mol] | Gel Fraction [1] | Equilibrium Swelling Ratio [1] | Gel integrity on extended heating (inversion test) ([2]; neat gel, 50° C.) | Gel stability by inversion test ([2]; neat gel, no swelling buffer, 4° C.) | Time gel is stable / collapses (inversion test) ([2]; neat gel, no swelling buffer, 37° C.) [h] | Time gel is stable / collapses (inversion test) ([2]; neat gel, no swelling buffer, 50° C.) [h] | Inversion test for hydrogel degradation (FIG. 1B) [2] | Long-term gel integrity ([2]; 5 days at 50° C. followed by >1 year at room temperature) | Gel stability by time-lapse photography, gel supporting a glass bead ([2]; neat gel, heating (50° C.))
COC(=O)C1=C(C(=O)OC)C2(CNC(=O)CCCC(=O)NCC34C=CC(O3)C(C(=O)OC)=C4C(=O)OC)C=CC1O2 [Linker 7a, Tetramethyl 1,1′-((glutaroylbis(azanediyl))bis(methylene))bis(7-oxabicyclo[2.2.1]hepta-2,5-diene-2,3-dicarboxylate)] | 4080 ± 57 | 0.91 ± 0.03 | 1.7 ± 0.04 | collapsed | stable for more than two weeks | 12 | ≤ 3 | – | – | –
COC(=O)C1=C(C(=O)OC)C2(CNC(=O)CCCC(=O)NCC34OC(C(C(=O)OC)=C3C(=O)OC)C3OC34)OC1C1OC12 (centres unmarked) [Linker 8, Tetramethyl 1,1′-((glutaroylbis(azanediyl))bis(methylene))bis(3,8-dioxatricyclo[3.2.1.0^2,4]oct-6-ene-6,7-dicarboxylate)] | 3900 ± 93 | 0.97 ± 0.01 | 1.60 ± 0.10 | remained intact | – | – | – | stable indefinitely | still intact | remained intact
